From patent US20220401514A1, “ANTIMICROBIAL, BACTERIOPHAGE-DERIVED POLYPEPTIDES AND THEIR USE AGAINST GRAM-NEGATIVE AND ACID-FAST BACTERIA” (CONTRAFECT CORPORATION, priority 2019, published 2022)

Columns and labels:
[1] = system: LPS; experiment: Endotoxin neutralization, limulus amoebocyte lysate (LAL) enzyme assay, LPS binding; format: biochemical; details: LPS 0.8 EU/mL
Description: CHEM. […] The standard reference samples contained only LPS dissolved in pyrogen-free water. Solutions were mixed well and incubated at 24° C. for 1 hour, and the manufacturers' test procedure for quantitative detection of endotoxins was followed.

[2] = system: outer membrane of Gram-negative bacteria (including P. aeruginosa, E. cloacae, K. pneumoniae, E. coli, and A. baumannii); experiment: Outer membrane permeabilization, NPN uptake; format: cell-based
Description: NPN is largely excluded by intact Gram-negative bacteria, but enhanced uptake of NPN may occur in cells having a damaged or permeable outer membrane. NPN fluoresces strongly under hydrophobic conditions and weakly under aqueous conditions. Therefore, NPN's interaction with membrane phospholipids in the bacterial envelope increases its fluorescence signal and can be used as an indication of a compromised bacterial membrane and a measurement of the outer membrane permeability.

[3] = system: Acinetobacter baumannii isolates; experiment: MIC against CDC Acinetobacter baumannii panel (n = 41); format: cell-based
Description: MIC values were determined using the methodology described above, i.e., the standard broth microdilution reference method defined by CLSI.

[4] = system: P. aeruginosa strain CFS-1292; format: cell-based, Pseudomonas aeruginosa

In the case of “MRLKMARRRYRLPRRRSRRLFSRTALRMHPRNRLRRIMRGGIRF [Chp2]”, the LPS binding ([1]; […]-64 μg/mL, 24° C., 1 hour) is reported as “demonstrate binding to LPS”, the “% LPS Bound” value ([1]; peptide concentration 0.5 μg/mL) is reported as 28.7% and the “% LPS Bound” value ([1]; peptide concentration 1 μg/mL) is reported as 28.0%. The “% LPS Bound” value ([1]; peptide concentration 2 μg/mL) was 27.0%, the “% LPS Bound” value ([1]; peptide concentration 4 μg/mL) was 29.3% and the “% LPS Bound” value ([1]; peptide concentration 8 μg/mL) was 31.0%. The “% LPS Bound” value ([1]; peptide concentration 16 μg/mL) was 40.8%, the “% LPS Bound” value ([1]; peptide concentration 32 μg/mL) was 58.1% and the “% LPS Bound” value ([1]; peptide concentration 64 μg/mL) was 71.0%. For the same sequence, the “outer membrane permeability (NPN uptake)” value [2] was “dose-dependent increase in outer membrane permeability, equivalent to that of colistin, LL37, and melittin”, the MIC50 ([3]; Actinobacter baumannii panel) was 0.5 µg/mL and the MIC90 ([3]; Actinobacter baumannii panel) was 1 µg/mL. It also gave an MIC ([3]; CDC Antibiotic-Resistant Bank No. 0273) of 1 µg/mL, an MIC ([3]; CDC Antibiotic-Resistant Bank No. 0274) of 0.5 µg/mL and an MIC ([3]; CDC Antibiotic-Resistant Bank No. 0275) of 0.5 µg/mL. It also gave an MIC ([3]; CDC Antibiotic-Resistant Bank No. 0276) of 0.5 µg/mL, an MIC ([3]; CDC Antibiotic-Resistant Bank No. 0277) of 0.5 µg/mL and an MIC ([3]; CDC Antibiotic-Resistant Bank No. 0278) of 1 µg/mL. The MIC ([3]; CDC Antibiotic-Resistant Bank No. 0279) was 1 µg/mL, the MIC ([3]; CDC Antibiotic-Resistant Bank No. 0280) was 1 µg/mL and the MIC ([3]; CDC Antibiotic-Resistant Bank No. 0281) was 1 µg/mL. It also gave an MIC ([3]; CDC Antibiotic-Resistant Bank No. 0282) of 0.5 µg/mL, an MIC ([3]; CDC Antibiotic-Resistant Bank No. 0283) of 1 µg/mL and an MIC ([3]; CDC Antibiotic-Resistant Bank No. 0284) of 0.5 µg/mL. For the same sequence, the MIC ([3]; CDC Antibiotic-Resistant Bank No. 0285) was 0.5 µg/mL, the MIC ([3]; CDC Antibiotic-Resistant Bank No. 0286) was 1 µg/mL and the MIC ([3]; CDC Antibiotic-Resistant Bank No. 0287) was 0.5 µg/mL. The MIC ([3]; CDC Antibiotic-Resistant Bank No. 0288) was 0.25 µg/mL, the MIC ([3]; CDC Antibiotic-Resistant Bank No. 0289) was 0.5 µg/mL and the MIC ([3]; CDC Antibiotic-Resistant Bank No. 0290) was 0.5 µg/mL. The MIC ([3]; CDC Antibiotic-Resistant Bank No. 0291) was 0.5 µg/mL, the MIC ([3]; CDC Antibiotic-Resistant Bank No. 0292) was 0.5 µg/mL and the MIC ([3]; CDC Antibiotic-Resistant Bank No. 0293) was 0.5 µg/mL. For the same sequence, the MIC ([3]; CDC Antibiotic-Resistant Bank No. 0294) was 0.5 µg/mL, the MIC ([3]; CDC Antibiotic-Resistant Bank No. 0295) was 1 µg/mL and the MIC ([3]; CDC Antibiotic-Resistant Bank No. 0296) was 0.5 µg/mL. For the same sequence, the MIC ([3]; CDC Antibiotic-Resistant Bank No. 0297) was 1 µg/mL, the MIC ([3]; CDC Antibiotic-Resistant Bank No. 0298) was 0.5 µg/mL and the MIC ([3]; CDC Antibiotic-Resistant Bank No. 0299) was 1 µg/mL. For the same sequence, the MIC ([3]; CDC Antibiotic-Resistant Bank No. 0300) was 2 µg/mL, the MIC ([3]; CDC Antibiotic-Resistant Bank No. 0301) was 1 µg/mL and the MIC ([3]; CDC Antibiotic-Resistant Bank No. 0302) was 1 µg/mL. It also gave an MIC ([3]; CDC Antibiotic-Resistant Bank No. 0303) of 1 µg/mL, an MIC ([3]; CDC Antibiotic-Resistant Bank No. 0304) of 0.5 µg/mL and an MIC ([3]; CDC Antibiotic-Resistant Bank No. 0305) of 0.5 µg/mL. It also gave an MIC ([3]; CDC Antibiotic-Resistant Bank No. 0306) of 0.5 µg/mL, an MIC ([3]; CDC Antibiotic-Resistant Bank No. 0307) of 1 µg/mL and an MIC ([3]; CDC Antibiotic-Resistant Bank No. 0308) of 1 µg/mL. It also gave an MIC ([3]; CDC Antibiotic-Resistant Bank No. 0309) of 1 µg/mL, an MIC ([3]; CDC Antibiotic-Resistant Bank No. 0310) of 0.5 µg/mL and an MIC ([3]; CDC Antibiotic-Resistant Bank No. 0311) of 0.5 µg/mL. The MIC ([3]; CDC Antibiotic-Resistant Bank No. 0312) was 0.5 µg/mL, the MIC ([3]; CDC Antibiotic-Resistant Bank No. 0313) was 0.5 µg/mL and the “frequency (spontaneous resistance)” value ([4]; CAA media with agent at 4×MIC, resistant colonies after 48 hours / total CFUs) was less than 1.25E−09. For the same sequence, the MIC ([4]; P. aeruginosa CFS-1292, MIC underlying the 4×MIC selection) was 0.25 µg/mL.
